Structures can show the parent of a compound that is named as a salt.
How the values were obtained:
[1] = system: H9C2 cardiomyocytes; conditions: Dox only, 24 h, CCK-8
[2] = system: H9C2 cardiomyocytes; type: cell-based, rat

| SMILES | concentration inducing cytotoxicity in H9C2 cardiomyocytes [1] [nM] | protection of H9C2 viability against Dox (control studies) [2] |
| --- | --- | --- |
| COc1cccc2c1C(=O)c1c(O)c3c(c(O)c1C2=O)C[C@@](O)(C(=O)CO)C[C@@H]3O[C@H]1C[C@H](N)[C@H](O)[C@H](C)O1 [Dox, Doxorubicin hydrochloride] | ≥ 2500 |  |
| C1COCCN1.COc1ccc(P(=S)(S)N2CCOCC2)cc1 (stereo not drawn) [GYY4137] |  | no effect on viability |
| N[C@@H](CS)C(=O)O [Cys, cysteine] |  | no protective effect |

From publication PMC6225339 (Journal of the American Chemical Society, 2018)
